Key:
[1] = tested on: CHO cells modified to produce a monoclonal antibody; experiment: Effect of addition of L-cysteine derivatives to feed medium on proliferation of CHO cells and antibody production (1); assay type: cell-based, Chinese hamster; conditions: for antibody production amount: 14.5, 29 or 58 mM in feed medium, fed on days 4, 7, 9, 11, 14 days culture, FIG. 3
Experimental: In this Example, an effect of addition of L-cysteine derivatives to a feed medium on proliferation of CHO cells and antibody production was evaluated. As the L-cysteine derivatives, Compounds 1 and 2 were used. As the CHO cells, CHO cells modified to produce a monoclonal antibody were used.
CELLiST (registered trademark) Basal media (Ajinomoto Co., Ltd.: BASAL3; containing 1.3 mM L-cysteine) was added with LR3-IGF-1 (SIGMA-ALDRICH: I1271-1MG, final concentration of 50 μg/mL) and L-Glutamine (Thermo Fisher SCIENTIFIC: 25030081, final concentration of 6 mM), to prepare a basal medium.
Feed media (9 kinds in total) each containing 82 g/L Cellvento (registered trademark) Feed-210 (Merck: 1.02488.0005), 70 g/L glucose (Wako Pure Chemical Industries, Ltd.: 043-31163), and L-cysteine, Compound 1, or Compound 2 each at 14.5 mM, 29 mM, or 58 mM were prepared. In addition, a feed medium without addition of L-cysteine, which only contained 82 g/L Cellvento (registered trademark) Feed-210 and 70 g/L glucose, was prepared. Separately, a tyrosine concentrate (L-tyrosine disodium salt dihydrate (Merck: 122666-87-9) 149.64 g/L, pH 11.3) was prepared.
A 30 mL-aliquot of a CHO cell suspension adjusted to 3×10^5 cells/mL using the prepared basal medium was seeded into 125 mL-volume flasks (CORNING: 431143), and cultured for 14 days. The culture was carried out with n=2 for all experimental groups. The culture temperature was 37° C. and the agitation speed was 110 rpm. A 1.8 mL-aliquot of each of the prepared feed media and a 60 μL-aliquot of the tyrosine concentrate were added on days 4, 7, 9, and 11 from the start of the culture. A cell culture broth was sampled on days 4, 7, 9, 11, and 14 from the start of the culture, and the viable cell count was measured using a viable/dead cells autoanalyzer Vi-CELL™ XR (Beckman Coulter), and the antibody production amount was measured using Octet QK (FORTEBIO).

[2] = Stability of L-cysteine derivatives in buffer solution (crystal precipitation by visual observation); assay type: physicochemical; conditions: 58 mM in PBS buffer pH 7.0 to 7.2; for crystal precipitation, Days 0 / crystal precipitation, Days 3 / crystal precipitation, Days 7 / crystal precipitation, Days 14 / crystal precipitation, Days 21 / crystal precipitation, Days 24: stored at 5° C. in the dark; for crystal precipitation, Days 0: day 0; for crystal precipitation, Days 3: day 3; for crystal precipitation, Days 7: day 7; for crystal precipitation, Days 14: day 14; for crystal precipitation, Days 21: day 21; for crystal precipitation, Days 24: day 24
Experimental: In this Example, the stability of L-cysteine derivatives in a buffer solution was evaluated.
In the table, “+” to “++++” indicate that crystal precipitation was observed, and the higher the number of “+”, the greater the degree of precipitation.

[3] = Stability of L-cysteine derivatives in feed medium (crystal precipitation by visual observation); assay type: physicochemical; conditions: for crystal precipitation, Days 0 / crystal precipitation, Days 1 / crystal precipitation, Days 7 / crystal precipitation, Days 22 / crystal precipitation, Days 30: stored at 5° C. in the dark; for crystal precipitation, Days 0: day 0; for crystal precipitation, Days 1: day 1; for crystal precipitation, Days 7: day 7; for crystal precipitation, Days 22: day 22; for crystal precipitation, Days 30: day 30
Experimental: In this Example, the stability of L-cysteine derivatives in a feed medium was evaluated. As the L-cysteine derivatives, Compounds 1 and 2 were used.
A feed medium containing 82 g/L Cellvento (registered trademark) Feed-210 (Merck: 1.02488.0005), 70 g/L glucose (Wako Pure Chemical Industries, Ltd.: 043-31163), and 58 mM L-cysteine, 58 mM Compound 1, or 58 mM Compound 2, and a feed medium without addition of L-cysteine, which only contained 82 g/L Cellvento (registered trademark) Feed-210 and 70 g/L glucose were prepared at pH 5.2 to 5.6, which are described in the instruction of Feed-210, and at pH 7.0, which is a neutral pH condition used for usual cultivation, to obtain 8 kinds of feed media in total. All of the feed media were prepared as transparent solutions.
After each of the feed media was stored at 5° C. in the dark, crystal precipitation was confirmed by visual observation. […] In the table, “+” to “++++” indicate that crystal precipitation was observed, and the higher the number of “+”, the greater the degree of precipitation. Under the addition condition, significant precipitation was observed from one week after the start of storage. Under the condition of adding Compound 2, precipitation was observed from 22 days after the start of storage.

[4] = tested on: CHO cells modified to produce a monoclonal antibody; experiment: Effect of addition of L-cysteine derivatives to basal medium on proliferation of CHO cells; assay type: cell-based, Chinese hamster; conditions: for use as an alternative for L-cysteine in the basal medium: 1.3 mM in basal medium; for proliferation of cells (viable cell count): 1.3 mM in basal medium otherwise without L-cysteine, day 7 of culture, FIG. 1
Experimental: In this Example, an effect of addition of L-cysteine derivatives to a basal medium on proliferation of CHO cells was evaluated. As the L-cysteine derivatives, (2RS,4R)-2-methyl-2,4-thiazolidinedicarboxylic acid 2-ethyl ester (hereinafter, also referred to as “Compound 1”) and (2RS,4R)-2-methyl-2,4-thiazolidinedicarboxylic acid (hereinafter, also referred to as “Compound 2”) were used. As the CHO cells, CHO cells modified to produce a monoclonal antibody were used.
CELLiST (registered trademark) Basal media (Ajinomoto Co., Ltd.: BASAL3) without L-cysteine was prepared, to obtain a culture medium without addition of L-cysteine. The culture medium without addition of L-cysteine was added with L-cysteine, Compound 1, or Compound 2, to prepare a culture medium containing 1.3 mM L-cysteine, 1.3 mM Compound 1, or 1.3 mM Compound 2. Each culture medium was added with LR3-IGF-1 (SIGMA-ALDRICH: I1271-1MG, final concentration of 50 μg/mL) and L-Glutamine (Thermo Fisher SCIENTIFIC: 25030081, final concentration of 6 mM), to prepare a basal medium.
A 3 mL-aliquot of a CHO cell suspension adjusted to 3×10^5 cells/mL using the prepared basal medium was seeded into a 6 well plate (CORNING: 3471), and cultured for 11 days. The culture was carried out with n=3 for all experimental groups. The culture temperature was 37° C. and the agitation speed was 110 rpm. A cell culture broth was sampled on days 7 and 11 from the start of the culture, and the viable cell count was measured using a viable/dead cells autoanalyzer Vi-CELL™ XR (Beckman Coulter).

[5] = 58 mM in feed medium pH 5.2 to 5.6
[6] = 58 mM in feed medium, 5° C. in the dark

| relative stability compared with L-cysteine ([2]; 5° C. in the dark) | crystal precipitation, Days 0 [2] | crystal precipitation, Days 3 [2] | crystal precipitation, Days 7 [2] | crystal precipitation, Days 14 [2] | crystal precipitation, Days 21 [2] | crystal precipitation, Days 24 [2] | crystal precipitation, Days 0 [3, 5] | crystal precipitation, Days 1 [3, 5] | crystal precipitation, Days 7 [3, 5] | crystal precipitation, Days 22 [3, 5] | crystal precipitation, Days 30 [3, 5] | crystal precipitation, Days 0 ([3]; 58 mM in feed medium pH 7) | crystal precipitation, Days 1 ([3]; 58 mM in feed medium pH 7) | crystal precipitation, Days 7 ([3]; 58 mM in feed medium pH 7) | crystal precipitation, Days 22 ([3]; 58 mM in feed medium pH 7) | crystal precipitation, Days 30 ([3]; 58 mM in feed medium pH 7) | SMILES | antibody production amount [1] | use as an alternative for L-cysteine in the basal medium [4] | proliferation of cells (viable cell count) [4] | further results |
| --- | --- | --- | --- | --- | --- | --- | --- | --- | --- | --- | --- | --- | --- | --- | --- | --- | --- | --- | --- | --- | --- |
| more stable than L-cysteine | − | − | − | − | − | − | − | − | − | + | +++ | − | − | − | ++ | +++ | CC1(C(=O)O)N[C@H](C(=O)O)CS1 (mixture of isomers) [Compound 2, (2RS,4R)-2-methyl-2,4-thiazolidinedicarboxylic acid] | almost equivalent to that of the experimental group of L-cysteine | able to be used as an alternative for L-cysteine | almost equivalent to that of the experimental group using L-cysteine | precipitation observed from (after the start of storage) [3, 6]: 22 days |
| more stable than L-cysteine | − | − | − | − | − | − | − | − | − | − | − | − | − | − | − | − | CCOC(=O)C1(C)N[C@H](C(=O)O)CS1 (mixture of isomers) [Compound 1, (2RS,4R)-2-methyl-2,4-thiazolidinedicarboxylic acid 2-ethyl ester] | almost equivalent to that of the experimental group of L-cysteine | unable to substitute the whole of L-cysteine in the basal medium | no proliferation of cells was observed | use as an alternative for L-cysteine in the feed medium ([1]; in feed medium, basal medium containing 1.3 mM L-cysteine): able to be used as an alternative for L-cysteine in the feed medium; relative stability in the culture medium [3, 6]: more stable than Compound 2; crystal precipitation on storage, in words ([3]; 58 mM in feed medium, 5° C. in the dark, up to 30 days after the start of storage): no crystal precipitation was observed |

| SMILES | relative stability compared with L-cysteine ([2]; 5° C. in the dark) | crystal precipitation, Days 0 [2] | crystal precipitation, Days 3 [2] | crystal precipitation, Days 7 [2] | crystal precipitation, Days 14 [2] | crystal precipitation, Days 21 [2] | crystal precipitation, Days 24 [2] | crystal precipitation, Days 0 [3, 5] | crystal precipitation, Days 1 [3, 5] | crystal precipitation, Days 7 [3, 5] | crystal precipitation, Days 22 [3, 5] | crystal precipitation, Days 30 [3, 5] | crystal precipitation, Days 0 ([3]; 58 mM in feed medium pH 7) | crystal precipitation, Days 1 ([3]; 58 mM in feed medium pH 7) | crystal precipitation, Days 7 ([3]; 58 mM in feed medium pH 7) | crystal precipitation, Days 22 ([3]; 58 mM in feed medium pH 7) | crystal precipitation, Days 30 ([3]; 58 mM in feed medium pH 7) | antibody production amount [1] | use as an alternative for L-cysteine in the basal medium [4] | proliferation of cells (viable cell count) [4] | further results |
| --- | --- | --- | --- | --- | --- | --- | --- | --- | --- | --- | --- | --- | --- | --- | --- | --- | --- | --- | --- | --- | --- |
| Cl.N[C@@H](CS)C(=O)O.O [L-cysteine, L-cysteine hydrochloride monohydrate] |  | − | ++ | +++ | +++ | +++ | +++ | − | − | +++ | +++ | +++ | − | − | +++ | +++ | +++ |  |  | Proliferation of cells was observed | significant precipitation observed from (after the start of storage) ([2]; 5° C. in the dark): 3 days |

— patent US20230044979A1, “ANIMAL CELL CULTURING METHOD” (AJINOMOTO CO., INC., priority 2020, published 2023)
